Test results published in patent publication US11999746B2, “Compounds” (GlaxoSmithKline Intellectual Property Development Limited, priority 2014, dated 2024).
Counter-ions that a name gives are not always drawn.

Molecular target: T1, Lp-PLA2 in human plasma (Homo sapiens, UniProt Q13093)
T1 construct: from tissue; host or cells: pooled human plasma
T1 sequence (Q13093 22-441): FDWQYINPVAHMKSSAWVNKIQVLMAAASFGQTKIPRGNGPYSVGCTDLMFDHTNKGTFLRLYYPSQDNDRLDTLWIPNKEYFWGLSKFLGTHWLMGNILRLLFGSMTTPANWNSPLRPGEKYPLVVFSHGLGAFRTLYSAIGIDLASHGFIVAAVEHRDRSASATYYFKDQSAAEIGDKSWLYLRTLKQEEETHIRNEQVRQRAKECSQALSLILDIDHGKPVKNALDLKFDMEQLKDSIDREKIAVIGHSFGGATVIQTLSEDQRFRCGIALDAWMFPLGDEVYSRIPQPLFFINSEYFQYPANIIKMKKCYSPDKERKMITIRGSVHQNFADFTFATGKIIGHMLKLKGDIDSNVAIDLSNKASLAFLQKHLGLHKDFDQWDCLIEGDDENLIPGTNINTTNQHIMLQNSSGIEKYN
Assay: (3b) Lp-PLA2 human plasma alternative Thio-PAF assay
Type: biochemical
Conditions: (3b) alternative Thio-PAF assay, pooled human plasma; Examples of 266-412 were tested here; read-out: pIC50 in the Lp-PLA2 human plasma assay (converted)
Method: (3b) Alternative Thio-PAF Assay
The human plasma assay utilizes the same thioester analog of PAF as described in (1b) “hr ThioPAF” assay. This assay may detect the activity of Lp-PLA2 in human plasma, as determined by specific inhibition by Lp-PLA2 inhibitors.
The thio-PAF assay was run as a quenched 20 μL assay. Compounds source plate was prepared by making 1:3 (by volume) serial dilution of the compounds into pure DMSO on 96-well microplate. 5 μL of compounds on compound source plate were transferred to 96-well Corning 3686 (black) low-volume plates by STAR+(Hamilton) liquid dispenser. 10 μL pooled human plasma, which was previously aliquoted and frozen, was added. Plates were centrifuged for 30 sec at 1000 rpm. After 15 minutes preincubation at room temperature, 5 μL of substrate solution comprising 2 mM 2-thio-PAF [from ethanol stock], 52 μM CPM [from a DMSO stock] and 2.5 mM NEM (N-ethylmaleimide) [made fresh daily in DMSO] in assay buffer (50 mM HEPES, pH 7.4, 150 mM NaCl, 1 mM CHAPS) was added to 96-well Corning 3686 (black) low-volume plates. After 3 mins, reaction was quenched with 10 μL of 5% aqueous trifluoroacetic acid (TFA). Plates were centrifuged 30 sec at 1000 rpm, covered to protect from light and incubated for 10 min at room temperature. Plates were read at ex: 380 nm/em: 485 nm using Envision plate reader (Perkin Elmer). Raw data were transferred to Excel software and pIC50 data, curve and QC analysis was conducted by using XL fit module in Excel.

| Compound | IC50 |
| --- | --- |
| CCOC(=O)C(C)N1CCN2c3cc(OCc4ccc(F)c(F)c4)nc(=O)n3CC2C1 (single isomer, unassigned) [Example E327, Ethyl 2-(7-((3,4-difluorobenzyl)oxy)-9-oxo-3,4,11,11a-tetrahydro-1H-pyrazino[1′,2′:3,4]imidazo[1,2-c]pyrimidin-2(9H)-yl)propanoate] | ≤ 0.1 µM |
| CN1c2cc(OCc3ccc(F)c(F)c3)nc(=O)n2CC12COC2 [Example 398, 7-((3,4-Difluorobenzyl)oxy)-1-methyl-1H-spiro[imidazo[1,2-c]pyrimidine-2,3′-oxetan]-5(3H)-one] | ≤ 0.1 µM |
| Cc1ccc(Oc2c(F)cc(COc3cc4n(c(=O)n3)CC3(COC3)N4C)cc2C#N)cn1 [Example 399, 3-Fluoro-5-(((1-methyl-5-oxo-3,5-dihydro-1H-spiro[imidazo[1,2-c]pyrimidine-2,3′-oxetan]-7-yl)oxy)methyl)-2-((6-methylpyridin-3-yl)oxy)benzonitrile] | ≤ 0.1 µM |
| Cc1ccc(Oc2c(F)cc(COc3cc4n(c(=O)n3)CC3(COC3)N4C)cc2F)cn1 [Example 400, 7-((3,5-Difluoro-4-((6-methylpyridin-3-yl)oxy)benzyl)oxy)-1-methyl-1H-spiro[imidazo[1,2-c]pyrimidine-2,3′-oxetan]-5(3H)-one] | ≤ 0.1 µM |

Molecular target: T2, recombinant human Lp-PLA2 (Homo sapiens, UniProt Q13093)
T2 sequence (Q13093 22-441): T1 sequence (Q13093 22-441)
Assay: (1b) hrThioPAF assay, recombinant human Lp-PLA2
Type: biochemical
Conditions: Examples 266-412 were tested here, one experiment or average of multiple experiments, read-out: rhLp-PLA2 (pIC50) (converted)
Excerpt: 1-O-Hexadecyl-2-deoxy-2-thio-S-acetyl-sn-glyceryl-3-phosphorylcholine (2-thio-PAF) is a substrate for PAF-hydrolases (PAF-AH) commercially available from Cayman Chemical. Upon cleavage with PAF-AH, the free thiol is released at the sn-2 position and can then react with 7-diethylamino-3-(4′-maleimidylphenyl)-4-methylcoumarin (CPM) a thiol-reactive coumarin. This reaction (Michael addition) results in an increase in fluorescence. Inhibitors of Lp-PLA2 therefore prevent this cleavage and no fluorescent increase is observed.
The Thio-PAF assay was run as an unquenched 20 μL assay. The source plate containing the compounds to be tested was prepared by making 1:3 (by volume) serial dilution of the compounds within DMSO on 384-well microplate. Then, 5 μL of the compounds on compound source plate were transferred into 384 well Greiner 784076 (black) plates using STAR+(Hamilton) liquid dispenser. 10 μL of recombinant human Lp-PLA2 enzyme (20 pM rhLp-PLA2 in assay buffer of 50 mM HEPES, pH 7.4, 150 mM NaCl, 1 mM CHAPS) was added to each well of the plate. 5 μL of substrate comprising 40 μM 2-thio-PAF [from ethanol stock], 40 μM CPM [from a DMSO stock] and 400 μM NEM (N-ethylmaleimide) [made fresh daily in DMSO] in assay buffer (50 mM HEPES, pH 7.4, 150 mM NaCl, 1 mM CHAPS) was added to 384 well Greiner 784076 black plates. Plates were vortexed for 10 sec. The plate was covered to protect it from light and incubated for 20 min at 25° C. The plates were read for fluorescence intensity at ex: 380 nm/em: 485 nm using Envision plate reader (Perkin Elmer). Raw data were transferred to Excel software and pIC50 data, curve and QC analysis was conducted by using XL fit module in Excel.

| Compound | IC50 |
| --- | --- |
| CN1c2cc(OCc3ccc(F)c(F)c3)nc(=O)n2CC12COC2 [Example 398, 7-((3,4-Difluorobenzyl)oxy)-1-methyl-1H-spiro[imidazo[1,2-c]pyrimidine-2,3′-oxetan]-5(3H)-one] | ≤ 10 µM |
| Cc1ccc(Oc2c(F)cc(COc3cc4n(c(=O)n3)CC3(COC3)N4C)cc2C#N)cn1 [Example 399, 3-Fluoro-5-(((1-methyl-5-oxo-3,5-dihydro-1H-spiro[imidazo[1,2-c]pyrimidine-2,3′-oxetan]-7-yl)oxy)methyl)-2-((6-methylpyridin-3-yl)oxy)benzonitrile] | ≤ 10 µM |
| Cc1ccc(Oc2c(F)cc(COc3cc4n(c(=O)n3)CC3(COC3)N4C)cc2F)cn1 [Example 400, 7-((3,5-Difluoro-4-((6-methylpyridin-3-yl)oxy)benzyl)oxy)-1-methyl-1H-spiro[imidazo[1,2-c]pyrimidine-2,3′-oxetan]-5(3H)-one] | ≤ 10 µM |
| N#Cc1cc(COc2cc3n(c(=O)n2)CC2CNCCN32)ccc1OC1CCC1 (stereo not shown) [Example E316, 2-Cyclobutoxy-5-(((9-oxo-2,3,4,9,11,11a-hexahydro-1H-pyrazino[1′,2′:3,4]imidazo[1,2-c]pyrimidin-7-yl)oxy)methyl)benzonitrile] | ≤ 10 µM |
| O=C(O)C(C1CC1)N1CCN2c3cc(OCc4ccc(F)c(F)c4)nc(=O)n3CC2C1 (stereo not shown) [Example E328, 2-Cyclopropyl-2-(7-((3,4-difluorobenzyl)oxy)-9-oxo-3,4,11,11a-tetrahydro-1H-pyrazino[1′,2′:3,4]imidazo[1,2-c]pyrimidin-2(9H)-yl)acetic acid, trifluoroacetic acid Salt] | ≤ 10 µM |
| O=C1CN2c3cc(OCc4cccc(F)c4F)nc(=O)n3CC2CN1 (stereo not shown) [Example E348, 7-((2,3-Difluorobenzyl)oxy)-11,11a-dihydro-1H-pyrazino[1′,2′:3,4]imidazo[1,2-c]pyrimidine-3,9(2H,4H)-dione] | ≤ 10 µM |
| O=c1nc(OCc2cccc(F)c2F)cc2n1CC1CSCCN21 (stereo not shown) [Example E361, 7-((2,3-Difluorobenzyl)oxy)-3,4,11,11a-tetrahydropyrimido[6′,1′:2,3]imidazo[5,1-c][1,4] thiazin-9(1H)-one] | ≤ 10 µM |
| O=c1nc(OCc2cccc(F)c2F)cc2n1CC1C[S+]([O-])CCN21 (stereo not shown) [Example E362, 7-((2,3-Difluorobenzyl)oxy)-3,4,11,11a-tetrahydropyrimido[6′,1′:2,3]imidazo[5,1-c][1,4] thiazin-9(1H)-one 2-oxide] | ≤ 10 µM |
| O=c1nc(OCc2cccc(F)c2F)cc2n1CC1CS(=O)(=O)CCN21 (stereo not shown) [Example E363, 7-((2,3-Difluorobenzyl)oxy)-3,4,11,11a-tetrahydropyrimido[6′,1′:2,3]imidazo[5,1-c][1,4] thiazin-9(1H)-one 2,2-dioxide] | ≤ 10 µM |
| Cc1ccc(Oc2c(F)cc(COc3cc4n(c(=O)n3)C[C@@H]3C[C@H](O)CN43)cc2F)cn1 [Example E385, (7S,8aS)-3-((3,5-Difluoro-4-((6-methylpyridin-3-yl)oxy)benzyl)oxy)-7-hydroxy-7,8,8a,9-tetrahydropyrrolo[1′,2′:3,4]imidazo[1,2-c]pyrimidin-1(6H)-one] | ≤ 10 µM |
| Cn1cc(Oc2c(F)cc(COc3cc4n(c(=O)n3)CC3(COC3)N4)cc2F)cn1 [Example E393] | ≤ 10 µM |

The remaining lines, values ahead:

| IC50 | Compound |
| --- | --- |
| ≤ 0.1 µM | N#Cc1cc(COc2cc3n(c(=O)n2)CC2CNCCN32)ccc1OC1CCCC1 (stereo not shown) [Example E317, 2-(Cyclopentyloxy)-5-(((9-oxo-2,3,4,9,11,11a-hexahydro-1H-pyrazino[1,2′:3,4]imidazo[1,2-c]pyrimidin-7-yl)oxy)methyl)benzonitrile] |
| ≤ 10 µM | N#Cc1cc(CNc2cc3n(c(=O)n2)CC2CNCCN32)ccc1F (stereo not shown) [Example E319, 2-Fluoro-5-(((9-oxo-2,3,4,9,11,11a-hexahydro-1H-pyrazino[1′,2′:3,4]imidazo[1,2-c]pyrimidin-7-yl)amino)methyl)benzonitrile hydrochloride] |
| ≤ 10 µM | N#Cc1cc(COc2ccc(COc3cc4n(c(=O)n3)CC3CNC(=O)CN43)cc2C#N)ccc1F (stereo not shown) [Example E350, 5-((2-cyano-4-(((3,9-dioxo-2,3,4,9,11,11a-hexahydro-1H-pyrazino[1′,2′:3,4]imidazo[1,2-c]pyrimidin-7-yl)oxy)methyl)phenoxy)methyl)-2-fluorobenzonitrile] |
| ≤ 10 µM | O=C1CN2c3cc(NCc4ccc(F)c(F)c4)nc(=O)n3CC2CN1 (stereo not shown) [Example E353, 7-((3,4-Difluorobenzyl)amino)-11,11a-dihydro-1H-pyrazino[1′,2′:3,4]imidazo[1,2-c]pyrimidine-3,9(2H,4H)-dione] |
| ≤ 10 µM | N#Cc1cc(CNc2cc3n(c(=O)n2)CC2CNC(=O)CN32)ccc1F (stereo not shown) [Example E354, 5-(((3,9-dioxo-2,3,4,9,11,11a-hexahydro-1H-pyrazino[1′,2′:3,4]imidazo[1,2-c]pyrimidin-7-yl)amino)methyl)-2-fluorobenzonitrile, trifluoroacetic acid salt] |
| ≤ 10 µM | N#Cc1cc(COc2ccc(COc3cc4n(c(=O)n3)CC3CSCCN43)cc2C#N)ccc1F (stereo not shown) [Example E365, 5-((2-Cyano-4-(((9-oxo-1,3,4,9,11,11a-hexahydropyrimido[6′,1′:2,3]imidazo[5,1-c][1,4]thiazin-7-yl)oxy)methyl)phenoxy)methyl)-2-fluorobenzonitrile] |
| ≤ 10 µM | O=c1nc(NCc2ccc(F)c(F)c2)cc2n1CC1CSCCN21 (stereo not shown) [Example E374, 7-((3,4-Difluorobenzyl)amino)-3,4,11,11a-tetrahydropyrimido[6′,1′:2,3]imidazo[5,1-c][1,4]thiazin-9(1H)-one] |
| ≤ 10 µM | O=c1nc(NCc2ccc(F)c(F)c2)cc2n1CC1C[S+]([O-])CCN21 (stereo not shown) [Example E375, 7-((3,4-Difluorobenzyl)amino)-3,4,11,11a-tetrahydropyrimido[6′,1′:2,3]imidazo[5,1-c][1,4]thiazin-9(1H)-one 2-oxide] |
| ≤ 10 µM | O=c1nc(NCc2cccc(F)c2F)cc2n1CC1CSCCN21 (stereo not shown) [Example E377, 7-((2,3-Difluorobenzyl)amino)-3,4,11,11a-tetrahydropyrimido[6′,1′:2,3]imidazo[5,1-c][1,4]thiazin-9(1H)-one] |
| ≤ 10 µM | N#Cc1cc(COc2cc3n(c(=O)n2)C[C@H]2C[C@@H](N)CN32)ccc1F [Example E389, 5-((((7R,8aR)-7-Amino-1-oxo-1,6,7,8,8a,9-hexahydropyrrolo[1′,2′:3,4]imidazo[1,2-c]pyrimidin-3-yl)oxy)methyl)-2-fluorobenzonitrile] |
